Results taken from patent publication US9187471B2, “Pyrido [4,3-b] indole and pyrido [3,4-b] indole derivatives and methods of use” (Medivation Technologies, Inc., priority 2010, dated 2015).

Legend:
[1] = target: T1, human recombinant serotonin (5-Hydroxytryptamine) 5-HT7 receptor (Homo sapiens, UniProt P34969); experiment: Serotonin 5-HT7 radioligand binding ([3H]LSD); conditions: compound at 0.1 μM; read-out: Inhibition of ligand binding, Serotonin 5-HT7 (percent inhibition of specific binding)
T1 construct: expressed in transfected cells; host or cells: CHO
Method: Lysergic acid diethylamide (LSD) for 120 min. at 25° C. […] Receptor proteins were filtered and washed, the filters were then counted to determine [^3H]LSD specifically bound.

[2] = target: T2, human recombinant dopamine D2L receptor (Homo sapiens, UniProt P14416); experiment: Dopamine D2L radioligand binding ([3H]Spiperone); conditions: read-out: Dopamine D2L (1 μM), percent inhibition of specific binding; compound at 1 μM; 0.16 nM [3H]Spiperone
T2 construct: expressed in transfected cells; host or cells: CHO
Method: Non-specific binding was estimated in the presence of 10 μM Haloperidol. Receptor proteins were filtered and washed, the filters were then counted to determine [^3H]Spiperone specifically bound.

[3] = target: T3, human recombinant adrenergic α2C receptor (Homo sapiens, UniProt P18825); experiment: Adrenergic α2C radioligand binding ([3H]MK-912); conditions: read-out: Adrenergic (0.1 μM) a2C, percent inhibition of specific binding; compound at 0.1 μM; 1 nM [3H]MK-912
T3 construct: expressed in transfected cells; host or cells: insect Sf9 cells
T3 sequence (P18825 1-462): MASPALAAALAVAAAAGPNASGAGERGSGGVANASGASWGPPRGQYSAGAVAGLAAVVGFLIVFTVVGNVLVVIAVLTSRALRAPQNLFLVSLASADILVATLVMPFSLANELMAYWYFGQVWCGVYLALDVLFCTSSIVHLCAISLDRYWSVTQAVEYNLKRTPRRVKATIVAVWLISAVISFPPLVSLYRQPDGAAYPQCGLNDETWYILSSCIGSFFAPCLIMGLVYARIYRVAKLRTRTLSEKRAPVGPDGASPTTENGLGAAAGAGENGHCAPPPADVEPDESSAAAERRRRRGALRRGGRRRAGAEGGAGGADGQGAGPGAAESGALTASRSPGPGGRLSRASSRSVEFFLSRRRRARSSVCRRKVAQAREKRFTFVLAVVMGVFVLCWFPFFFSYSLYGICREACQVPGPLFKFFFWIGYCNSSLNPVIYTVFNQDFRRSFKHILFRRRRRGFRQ
Summary of the method: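 Membranes from Sf9 cells expressing the human receptor, in 50 mM Tris-HCl pH 7.4 with 12.5 mM MgCl2 and 2 mM EDTA, incubated with compound and 1 nM [3H]MK-912 for 60 min at 25 °C. Non-specific binding defined with 10 μM WB-4101. Filter-bound radioactivity counted; percent inhibition of specific binding reported.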

[4] = target: T4, human recombinant histamine H1 receptor (Homo sapiens, UniProt P35367); experiment: Histamine H1 radioligand binding ([3H]Pyrilamine); conditions: read-out: Histamine H1 Binding (1 μM), percent inhibition of specific binding; compound at 1 μM; 1.2 nM [3H]Pyrilamine
T4 construct: expressed in transfected cells; host or cells: CHO-K1
Summary of the method: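 Results expressed as percent inhibition of specific [3H]pyrilamine binding, counted on filters after washing. Receptor source: CHO-K1 cells expressing recombinant human H1, in modified Tris-HCl buffer (50 mM, pH 7.4; 2 mM MgCl2, 100 mM NaCl, 250 mM sucrose). 1 μM pyrilamine defined non-specific binding.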

[5] = target: T5, rat adrenergic α1A receptor (Rattus norvegicus, UniProt P43140); experiment: Adrenergic α1A radioligand binding ([3H]Prazosin); conditions: read-out: Adrenergic (0.1 μM) a1A, percent inhibition of specific binding; compound at 0.1 μM; 0.25 nM [3H]Prazosin
T5 construct: rat adrenergic α1A receptor obtained from Wistar Rat submaxillary glands; from tissue; host or cells: Wistar rat submaxillary glands
T5 sequence (P43140 1-466): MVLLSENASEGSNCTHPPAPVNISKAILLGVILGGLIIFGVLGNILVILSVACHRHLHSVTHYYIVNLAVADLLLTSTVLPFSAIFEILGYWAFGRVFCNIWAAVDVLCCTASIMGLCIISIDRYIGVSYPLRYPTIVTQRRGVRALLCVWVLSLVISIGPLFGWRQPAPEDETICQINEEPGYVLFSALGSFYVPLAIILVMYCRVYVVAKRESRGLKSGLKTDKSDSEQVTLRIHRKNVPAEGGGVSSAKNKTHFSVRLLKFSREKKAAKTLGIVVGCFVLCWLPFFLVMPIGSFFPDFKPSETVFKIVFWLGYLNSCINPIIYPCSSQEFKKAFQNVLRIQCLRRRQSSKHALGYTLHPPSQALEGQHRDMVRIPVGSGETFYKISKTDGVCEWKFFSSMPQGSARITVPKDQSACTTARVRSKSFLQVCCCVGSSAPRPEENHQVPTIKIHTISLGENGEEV
Summary of the method: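 Wistar rat submaxillary gland receptor in 50 mM Tris-HCl pH 7.4 with 0.5 mM EDTA, incubated with compound and 0.25 nM [3H]Prazosin for 60 min at 25 °C.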

[6] = target: T6, human recombinant serotonin (5-Hydroxytryptamine) 5-HT6 receptor (Homo sapiens, UniProt P50406); experiment: Serotonin 5-HT6 radioligand binding ([3H]LSD); conditions: compound at 0.1 μM; read-out: Inhibition of ligand binding, Serotonin 5-HT6 (percent inhibition of specific binding)
T6 construct: expressed in transfected cells; host or cells: HeLa
Excerpt: Receptor proteins were filtered and washed, the filters were then counted to determine [3H]LSD specifically bound.

T2 sequence (P14416 whole entry): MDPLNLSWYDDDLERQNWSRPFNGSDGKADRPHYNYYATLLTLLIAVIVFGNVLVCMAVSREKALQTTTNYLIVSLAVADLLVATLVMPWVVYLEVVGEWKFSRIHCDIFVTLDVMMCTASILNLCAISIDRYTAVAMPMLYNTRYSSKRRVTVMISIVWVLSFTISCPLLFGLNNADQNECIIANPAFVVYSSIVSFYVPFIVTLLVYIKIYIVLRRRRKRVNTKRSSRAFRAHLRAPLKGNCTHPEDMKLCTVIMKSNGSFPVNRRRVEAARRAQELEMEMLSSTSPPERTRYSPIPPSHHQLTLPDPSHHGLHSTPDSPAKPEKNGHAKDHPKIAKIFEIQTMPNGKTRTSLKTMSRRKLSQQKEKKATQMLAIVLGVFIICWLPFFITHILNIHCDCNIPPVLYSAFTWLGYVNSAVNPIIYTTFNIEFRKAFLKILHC
T1 sequence (P34969 whole entry): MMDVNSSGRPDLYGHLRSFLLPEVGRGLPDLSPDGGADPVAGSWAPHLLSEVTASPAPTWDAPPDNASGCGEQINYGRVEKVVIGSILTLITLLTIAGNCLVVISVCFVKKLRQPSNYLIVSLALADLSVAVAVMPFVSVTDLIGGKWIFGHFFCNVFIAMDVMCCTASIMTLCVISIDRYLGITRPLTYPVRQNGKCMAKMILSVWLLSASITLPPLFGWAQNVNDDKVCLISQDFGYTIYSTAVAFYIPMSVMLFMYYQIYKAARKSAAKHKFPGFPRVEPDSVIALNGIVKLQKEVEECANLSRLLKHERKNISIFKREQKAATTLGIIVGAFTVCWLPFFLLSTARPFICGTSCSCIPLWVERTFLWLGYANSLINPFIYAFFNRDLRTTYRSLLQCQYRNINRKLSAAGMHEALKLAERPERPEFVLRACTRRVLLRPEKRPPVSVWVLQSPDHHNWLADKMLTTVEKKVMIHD
T6 sequence (P50406 whole entry): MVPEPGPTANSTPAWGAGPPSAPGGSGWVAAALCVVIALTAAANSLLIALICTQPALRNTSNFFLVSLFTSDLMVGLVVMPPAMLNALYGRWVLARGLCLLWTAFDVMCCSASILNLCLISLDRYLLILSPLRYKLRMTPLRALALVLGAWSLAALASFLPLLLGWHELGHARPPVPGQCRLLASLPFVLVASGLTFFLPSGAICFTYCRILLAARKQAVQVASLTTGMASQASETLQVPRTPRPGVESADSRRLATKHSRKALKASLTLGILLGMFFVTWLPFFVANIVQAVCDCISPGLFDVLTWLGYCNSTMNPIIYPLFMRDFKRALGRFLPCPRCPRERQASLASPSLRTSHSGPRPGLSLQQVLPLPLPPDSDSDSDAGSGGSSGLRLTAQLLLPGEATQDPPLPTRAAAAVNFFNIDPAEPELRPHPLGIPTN
T4 sequence (P35367 whole entry): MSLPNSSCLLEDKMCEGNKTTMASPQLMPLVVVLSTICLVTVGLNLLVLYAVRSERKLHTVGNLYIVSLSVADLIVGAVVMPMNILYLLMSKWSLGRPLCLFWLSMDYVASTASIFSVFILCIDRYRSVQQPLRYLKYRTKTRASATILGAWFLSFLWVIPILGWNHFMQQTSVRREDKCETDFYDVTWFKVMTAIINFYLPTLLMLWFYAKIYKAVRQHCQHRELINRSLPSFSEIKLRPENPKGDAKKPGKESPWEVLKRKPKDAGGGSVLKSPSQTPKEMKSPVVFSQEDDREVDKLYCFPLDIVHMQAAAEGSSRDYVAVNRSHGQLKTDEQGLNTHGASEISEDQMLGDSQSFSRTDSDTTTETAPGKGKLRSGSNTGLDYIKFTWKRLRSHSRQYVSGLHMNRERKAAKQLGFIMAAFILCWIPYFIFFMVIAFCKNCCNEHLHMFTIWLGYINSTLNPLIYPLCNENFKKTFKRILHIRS

| Compound | inhibition at 0.1 µM [1] | inhibition at 1 µM [2] | inhibition at 0.1 µM [3] | inhibition at 1 µM [4] | inhibition at 0.1 µM [5] | inhibition at 0.1 µM [6] |
| --- | --- | --- | --- | --- | --- | --- |
| Cc1ccc2c(c1)c1c(n2-c2ccccc2-c2cc3ccccc3s2)CCN(C)C1 [Compound No. 103, 5-(2-(benzo[b]thiophen-2-yl)phenyl)-2,8-dimethyl-2,3,4,5-tetrahydro-1H-pyrido[4,3-b]indole] | 39% | 10% | 69% | 10% | 44% | 20% |
| Cc1ccc2c(c1)c1c(n2-c2ccccc2-c2cncc3ccccc23)CCN(C)C1 [Compound No. 87, 5-(2-(isoquinolin-4-yl)phenyl)-2,8-dimethyl-2,3,4,5-tetrahydro-1H-pyrido[4,3-b]indole] | 14% | 10% | -6% | 47% | 8% | 13% |
| Cc1ccc2c(c1)c1c(n2-c2ccccc2-c2sccc2C)CCN(C)C1 [Compound No. 102, 2,8-dimethyl-5-(2-(3-methylthiophen-2-yl)phenyl)-2,3,4,5-tetrahydro-1H-pyrido[4,3-b]indole] | 34% | 48% | 43% | 57% | 28% | 42% |
| Cc1ccc2c(c1)c1c(n2-c2ccccc2-c2cccn2C)CCN(C)C1 [Compound No. 100, 2,8-dimethyl-5-(2-(1-methyl-1H-pyrrol-2-yl)phenyl)-2,3,4,5-tetrahydro-1H-pyrido[4,3-b]indole] | 48% | 11% | 66% | 36% | 46% | 26% |
| Cc1ccc2c(c1)c1c(n2-c2ccccc2-c2cccc3[nH]ncc23)CCN(C)C1 [Compound No. 105, 5-(2-(1H-indazol-4-yl)phenyl)-2,8-dimethyl-2,3,4,5-tetrahydro-1H-pyrido[4,3-b]indole] | 54% | 3% | 45% | 34% | 55% | 40% |
| Cc1ccc2c(c1)c1c(n2-c2ccccc2-c2cnn(C)c2)CCN(C)C1 [Compound No. 86, 2,8-dimethyl-5-(2-(1-methyl-1H-pyrazol-4-yl)phenyl)-2,3,4,5-tetrahydro-1H-pyrido[4,3-b]indole] | 53% | 6% | 0% | 47% | 17% | 11% |
| Cc1ccc2c(c1)c1c(n2-c2cnc3ccccc3c2)CCN(C)C1 [Compound No. 88, 2,8-dimethyl-5-quinolin-3-yl-2,3,4,5-tetrahydro-1H-pyrido[4,3-b]indole] | 13% | 7% | 4% | 18% | 20% | 4% |
| Cc1ccc2c(c1)c1c(n2-c2ccccc2-c2cn[nH]c2)CCN(C)C1 [Compound No. 104, 5-(2-(1H-pyrazol-4-yl)phenyl)-2,8-dimethyl-2,3,4,5-tetrahydro-1H-pyrido[4,3-b]indole] | 27% | -1% | 1% | 24% | 4% | 10% |
